# Experimental data reported in patent publication US20170266266A1, “Functions of 55 Newfound Proteins and Their Medicinal Application in the Treatment and Prevention of Disease” (priority 2012, published 2017).
# What was measured:
# [1] = system: atherosclerosis in APOE KO mice; type: in vivo
# [2] = system: atherosclerosis in ApoE knock out mouse on high fat diet
# Excerpt: 10 ApoE ko mice were fed with regular chow diet and used as negative control group. 50 ApoE ko mice were fed with high fat diet (35% kcal fat, 1% cholesterol) for 8 weeks, and then the plasma samples were collected for lipid profile measurement before the treatment. 50 ApoE ko mice were assigned into 5 groups based on the fasting overnight plasma TC and HDL level.
# 5.2. Study Timeline: • 23 Dec. 2011: 60 ApoE mice arrived at chempartner and were housed in the animal facility in the building #3 for the acclimation. • 6 Jan. 2012: Measured the body weight for each mouse. 50 mice were fed with high fat diet and 10 mice were fed with normal chow diet. • 2 Mar. 2012: All mice were fasted over night and plasma samples (about 300 ul whole blood) were collected for lipid profile measurement before treatment with RAAS antibody. • 19 Mar. 2012 to 6 Apr. […] 2012: All mice were fasted over night and plasma sample for each mouse (about 300 ul whole blood) was collected for lipid profile measurement after 16 weeks treatment. Blood glucose was also measured for each mouse. • 9 Jul. 2012: The study was terminated after 16 weeks treatment. Measure BW, sacrificed each mouse, dissected the aorta, heart, liver and kidney and fixed them in 4% PFA.
# Antibody products were administrated by intraperitoneal injection every two days (Monday, Wednesday, and Friday). and the positive compound was administered by p.o every day.
# The body weight was weighed weekly during the period of treatment. The fasting overnight blood glucose was measured at the end of study by Roche glucometer.
# About 300 ul of blood sample was collected from the orbital vein for each mouse and centrifuged at 7000 rpm for 5 min at 4E and the plasma lipid profile was measured by Roche Modular automatic biochemistry analyzer in DaAn Medical Laboratory
# After RAAS antibody products treatment for 16 weeks, all mice were sacrificed. Measured body weight and collected blood sample for each mouse. Weighed liver weight and saved a tiny piece of liver into 4% paraformaldehyde (PFA) fixation solution for further analysis. At same time, take the photos with heart, lung, aortas and two kidneys.
# 5.8. Oil Red Staining Procedure: • 1. Sacrificed the mice and dissected the heart, aorta, and arteries under dissecting microscope. • 2. Briefly wash with PBS and fixed in 4% paraformaldehyde (PFA) overnight at 4[…]. • 3. Rinse with 60% isopropanol • 4. Stain with freshly prepared Oil Red O working solution 10 min. • 1). Oil red O stock stain: 0.5% powder in isopropanol • 2). Working solution: dilute with distilled water (3:2) and filter with membrane (0.22 um) • 5. Rinse with 60% isopropanol 10 second. • 6. Dispel the adherent bit fat outside of the aorta under the dissecting microscope. • 7. Cut the vascular wall gently and keep the integrated arteries using the micro scissors. • 8. Unfold the vascular inner wall with the cover slides and fix it by water sealing tablet.
# Scanning the glasses slides with the Aperio ScanScope system and analyze with the image proplus software to measure the area of atherosclerotic plaque lesion. The results were expressed as the percentage of the total aortic surface area covered by lesions. The operation procedure of software was briefly described as follow: Converted the sys version photos into JPG version, then calibrated it and subsequently selected the red regions and then calculate the total area automatically by image proplus software.
# The results were expressed as the Mean±SEM and statistically evaluated by student's t-test.
substance,measurement,setting,value
human Apolipoprotein AI [APOAI],reduction and prevention of atherosclerosis,[1]; APOE KO mice,effective in the reduction and prevention of atherosclerosis
same,"pre-B HDL, western blot",[1]; after injection,increase of pre-B HDL
same,antibody of APOA1 raised in mice,"[1]; mouse, in vivo",no antibody of APOA1 raised
same,plasma HDL,[2]; 16 week treatment,mild trend to decrease the HDL level
same,plaque area and percentage of plaque area from root to right renal artery,[2]; 16 weeks,no significant difference
same,plaque area and percentage of plaque area in arterial arch area,[2]; 16 weeks,No significant difference
same,plaque area and percentage of plaque area in total inner vascular area,[2]; 16 weeks,No significant difference
same,lipid profile,[2]; 16 weeks treatment,did not affect the lipid profile
same,plasma TG level,[2]; 16 weeks treatment,no effect
same,plaque lesion area of aorta,"[2]; 16 weeks treatment, atorvastatin 40 mg/kg",did not reduce the plaque lesion area of aorta
same,deaths in treatment groups,"[2]; after 15 doses, i.p. daily on weekdays",several mice died in the treatment groups
same,body weight vs vehicle group,"[2]; mouse, in vivo",no significant difference
